Read-outs that look alike come from different tables or passages of the source.
How the values were obtained:
Assay type in all cases: biochemical
[1] = target: T1, G9a (Homo sapiens, UniProt Q96KQ7); assay: PMT filter-paper methylation assay, G9a; conditions: G9a (913-1913) 20 nM final, H3 (1-21 aa), 1 h
T1 construct: G9a (913-1913)
T1 sequence (Q96KQ7 913-1193 limits assumed): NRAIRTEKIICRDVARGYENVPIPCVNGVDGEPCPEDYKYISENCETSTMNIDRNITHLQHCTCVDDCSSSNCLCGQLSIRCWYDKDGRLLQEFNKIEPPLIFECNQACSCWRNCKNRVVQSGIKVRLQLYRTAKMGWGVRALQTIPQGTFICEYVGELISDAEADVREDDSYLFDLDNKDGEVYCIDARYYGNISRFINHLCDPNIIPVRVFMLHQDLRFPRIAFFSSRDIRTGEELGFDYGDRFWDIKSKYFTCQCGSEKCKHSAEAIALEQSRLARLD

[2] = target: T2, GLP1 (Homo sapiens, UniProt Q9H9B1); assay: PMT filter-paper methylation assay, GLP1; conditions: GLP1 (951-1235) 10 nM final, H3 (1-21 aa), 1 h
T2 construct: GLP1 (951-1235)
T2 sequence (Q9H9B1 982-1266): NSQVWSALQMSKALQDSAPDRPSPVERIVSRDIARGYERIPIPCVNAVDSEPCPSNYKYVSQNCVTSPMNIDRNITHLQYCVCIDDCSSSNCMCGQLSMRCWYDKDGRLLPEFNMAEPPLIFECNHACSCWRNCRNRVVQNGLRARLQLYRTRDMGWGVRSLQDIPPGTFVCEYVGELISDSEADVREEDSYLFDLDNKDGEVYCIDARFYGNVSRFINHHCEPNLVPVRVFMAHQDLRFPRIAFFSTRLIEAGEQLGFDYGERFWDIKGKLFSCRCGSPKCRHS
Experimental: (§1) Methylation Reaction. The 20 μL methylation reaction was carried out at ambient temperature using two mixtures: A. 10 μl of enzyme mixture in the assay buffer containing 50 mM Hepes (pH=8.0), 0.005% Tween-20, 5 μg/ml BSA and 1 mM TCEP; B. 10 μl of a mixture of 1.5 μM, 0.15 μCi [^3H-Me]-SAM cofactor and 3 μM of the corresponding peptide substrate in the same assay buffer. After A and B were mixed for a designated time period, the reaction mixture was examined with our filter-paper assay.
(§2) Filter-paper Assay. This assay relies on Whatman P-81 filter paper, which binds peptides but not SAM. Protein Methyl Transferases (PMTs) transfer ^3H-Me of [^3H-Me]-SAM to peptide substrates and the resultant ^3H-methylated, filter-paper-bound peptide is quantified with a scintillation counter. […] The radioactivity was quantified by a Beckman LS6000IC liquid scintillation counter.
(§3) Dose-response Curves and IC50. […] After incubating the reaction mixture for the respective reaction time, the conversion was quantified with the filter paper assay as described above. The inhibition was expressed as the percentage between the high control (no inhibition) and the low control (no enzyme) as follows: Percentage Inhibition=[(high control−reading)/(high control−low control)]×100%. […]

[3] = target: T3, SET7/9 (Homo sapiens, UniProt Q8WTS6); assay: PMT filter-paper methylation assay, SET7/9; conditions: SET7/9 full-length 150 nM final, H3 (1-21 aa), 3 h
T3 construct: SET7/9 Full-length
T3 sequence (Q8WTS6 1-366): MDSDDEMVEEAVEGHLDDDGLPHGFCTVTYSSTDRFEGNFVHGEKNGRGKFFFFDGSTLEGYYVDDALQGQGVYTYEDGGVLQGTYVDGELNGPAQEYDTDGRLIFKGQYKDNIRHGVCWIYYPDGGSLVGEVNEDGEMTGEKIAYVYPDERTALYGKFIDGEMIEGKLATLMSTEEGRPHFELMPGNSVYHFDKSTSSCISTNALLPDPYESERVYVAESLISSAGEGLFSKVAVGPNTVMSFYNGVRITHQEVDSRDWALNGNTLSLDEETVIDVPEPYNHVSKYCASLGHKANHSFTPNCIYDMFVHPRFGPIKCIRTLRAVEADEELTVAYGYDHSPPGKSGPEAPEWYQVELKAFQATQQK
Experimental: as §1, §2, §3

[4] = target: T4, SET8 (Homo sapiens, UniProt Q9NQR1); assay: PMT filter-paper methylation assay, SET8; conditions: SET8 (191-352) 1000 nM final, H4 (10-30 aa), 8 h
T4 construct: SET8 (191-352)
T4 sequence (Q9NQR1 191-352 isoform Q9NQR1-2): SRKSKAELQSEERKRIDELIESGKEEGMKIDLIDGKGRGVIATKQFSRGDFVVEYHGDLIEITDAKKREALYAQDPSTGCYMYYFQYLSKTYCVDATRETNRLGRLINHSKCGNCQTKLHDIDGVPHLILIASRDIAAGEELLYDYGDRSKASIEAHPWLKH
Experimental: as §1, §2, §3

[5] = target: T5, SETD2 (Homo sapiens, UniProt Q9BYW2); assay: PMT filter-paper methylation assay, SETD2; conditions: SETD2 (1347-1711) 250 nM final, H3 (20-50 aa), 4 h
T5 construct: SETD2 (1347-1711)
T5 sequence (Q9BYW2 1347-1711): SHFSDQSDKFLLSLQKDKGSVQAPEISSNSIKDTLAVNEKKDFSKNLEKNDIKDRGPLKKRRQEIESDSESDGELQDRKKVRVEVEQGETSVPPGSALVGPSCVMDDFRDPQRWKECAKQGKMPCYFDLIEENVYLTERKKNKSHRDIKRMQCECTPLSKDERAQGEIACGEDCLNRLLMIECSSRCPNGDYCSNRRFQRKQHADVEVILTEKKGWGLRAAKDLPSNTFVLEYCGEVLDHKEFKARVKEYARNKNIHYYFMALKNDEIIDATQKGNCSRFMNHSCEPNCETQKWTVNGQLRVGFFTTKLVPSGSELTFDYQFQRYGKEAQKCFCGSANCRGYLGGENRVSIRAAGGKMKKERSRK
Experimental: as §1, §2, §3

[6] = target: T6, PRMT1 (Homo sapiens, UniProt Q99873); assay: PMT filter-paper methylation assay, PRMT1; conditions: PRMT1 (10-352), 100 nm, RGG substrate, 1.5 h
T6 construct: PRMT1 (10-352)
T6 sequence (Q99873 10-352 isoform Q99873-3): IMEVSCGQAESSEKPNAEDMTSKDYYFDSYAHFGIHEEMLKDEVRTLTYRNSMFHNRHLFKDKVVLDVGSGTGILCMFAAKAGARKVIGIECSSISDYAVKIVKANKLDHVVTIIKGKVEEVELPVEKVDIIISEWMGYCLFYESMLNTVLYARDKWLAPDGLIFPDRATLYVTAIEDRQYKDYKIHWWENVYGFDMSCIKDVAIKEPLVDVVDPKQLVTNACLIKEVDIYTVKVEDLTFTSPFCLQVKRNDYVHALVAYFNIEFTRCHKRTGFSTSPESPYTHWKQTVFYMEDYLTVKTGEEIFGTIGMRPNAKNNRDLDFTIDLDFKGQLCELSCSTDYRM

[7] = target: T7, PRMT3 (Homo sapiens, UniProt O60678); assay: PMT filter-paper methylation assay, PRMT3; conditions: PRMT3 (211-531) 100 nM final, RGG, 3 h
T7 construct: PRMT3 (211-531)
T7 sequence (O60678 211-531): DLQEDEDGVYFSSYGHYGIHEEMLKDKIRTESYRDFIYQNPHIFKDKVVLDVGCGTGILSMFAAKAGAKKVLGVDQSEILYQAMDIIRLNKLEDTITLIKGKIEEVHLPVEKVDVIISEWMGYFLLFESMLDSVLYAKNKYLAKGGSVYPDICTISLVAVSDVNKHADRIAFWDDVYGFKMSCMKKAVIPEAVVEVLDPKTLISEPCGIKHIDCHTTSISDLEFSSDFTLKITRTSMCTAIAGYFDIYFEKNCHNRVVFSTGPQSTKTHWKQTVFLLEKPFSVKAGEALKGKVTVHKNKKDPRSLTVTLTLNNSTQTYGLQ

[8] = target: T8, SUV39H2 (Homo sapiens, UniProt Q9H5I1); assay: PMT filter-paper methylation assay, SUV39H2; conditions: SUV39H2 (112-410) 5 nM final, H3 (1-21 aa), 4 h
T8 construct: SUV39H2 (112-410)
T8 sequence (Q9H5I1 112-410): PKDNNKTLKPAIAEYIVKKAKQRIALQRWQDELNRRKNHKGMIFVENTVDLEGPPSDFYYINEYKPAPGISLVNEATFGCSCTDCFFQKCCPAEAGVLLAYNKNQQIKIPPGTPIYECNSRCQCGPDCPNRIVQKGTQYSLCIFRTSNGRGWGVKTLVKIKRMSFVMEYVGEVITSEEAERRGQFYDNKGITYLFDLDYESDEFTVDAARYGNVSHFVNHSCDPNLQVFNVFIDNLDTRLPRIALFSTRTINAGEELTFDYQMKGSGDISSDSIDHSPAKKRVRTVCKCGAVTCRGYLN

[9] = target: T9, CARM1 (Homo sapiens, UniProt Q86X55); assay: PMT filter-paper methylation assay, CARM1; conditions: H3 (1-40 aa), 7 h
T9 construct: CARM1 (19-608)
T9 sequence (Q86X55 19-608): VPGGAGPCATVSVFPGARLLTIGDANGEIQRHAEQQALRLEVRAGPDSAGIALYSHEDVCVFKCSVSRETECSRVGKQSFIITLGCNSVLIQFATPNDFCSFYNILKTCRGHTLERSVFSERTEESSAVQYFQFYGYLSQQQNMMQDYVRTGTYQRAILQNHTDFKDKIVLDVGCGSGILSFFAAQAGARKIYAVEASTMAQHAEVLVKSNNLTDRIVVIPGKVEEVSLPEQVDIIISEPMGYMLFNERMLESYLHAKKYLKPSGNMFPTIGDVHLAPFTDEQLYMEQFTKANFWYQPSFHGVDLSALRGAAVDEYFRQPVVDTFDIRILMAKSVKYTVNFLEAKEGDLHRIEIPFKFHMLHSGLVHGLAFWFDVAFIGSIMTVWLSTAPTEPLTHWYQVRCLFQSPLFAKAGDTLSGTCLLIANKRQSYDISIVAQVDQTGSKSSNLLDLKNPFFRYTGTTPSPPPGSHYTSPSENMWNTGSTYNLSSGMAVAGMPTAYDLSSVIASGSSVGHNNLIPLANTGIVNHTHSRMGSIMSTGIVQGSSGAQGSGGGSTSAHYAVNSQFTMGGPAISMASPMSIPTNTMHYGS

[10] = target: T10, SMYD2-FL (Homo sapiens, UniProt Q9NRG4); assay: PMT filter-paper methylation assay, SMYD2; conditions: SMYD2 full-length 50 nM final, p53 (360-393 aa), 10 h
T10 construct: SMYD2 Full-length
T10 sequence (Q9NRG4 whole entry, the tested form may be a part): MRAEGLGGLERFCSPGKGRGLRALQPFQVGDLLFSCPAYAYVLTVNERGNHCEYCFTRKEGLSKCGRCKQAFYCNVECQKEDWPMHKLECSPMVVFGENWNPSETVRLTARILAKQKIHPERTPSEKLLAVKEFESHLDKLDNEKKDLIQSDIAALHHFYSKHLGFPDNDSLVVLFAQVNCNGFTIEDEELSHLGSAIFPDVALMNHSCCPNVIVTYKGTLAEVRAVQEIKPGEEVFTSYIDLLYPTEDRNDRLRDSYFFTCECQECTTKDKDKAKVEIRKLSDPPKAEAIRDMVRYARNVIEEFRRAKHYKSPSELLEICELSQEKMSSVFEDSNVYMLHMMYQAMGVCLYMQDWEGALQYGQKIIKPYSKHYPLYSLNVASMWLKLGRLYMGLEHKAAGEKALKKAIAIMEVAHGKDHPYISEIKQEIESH
Experimental: as §1, §2, §3

[11] = target: T11, SMYD3 (Homo sapiens, UniProt Q9H7B4); assay: PMT filter-paper methylation assay, SMYD3; conditions: SMYD3 125 nM final, MAP3K2 (1-350 aa), 2 h
T11 sequence (Q9H7B4 1-428): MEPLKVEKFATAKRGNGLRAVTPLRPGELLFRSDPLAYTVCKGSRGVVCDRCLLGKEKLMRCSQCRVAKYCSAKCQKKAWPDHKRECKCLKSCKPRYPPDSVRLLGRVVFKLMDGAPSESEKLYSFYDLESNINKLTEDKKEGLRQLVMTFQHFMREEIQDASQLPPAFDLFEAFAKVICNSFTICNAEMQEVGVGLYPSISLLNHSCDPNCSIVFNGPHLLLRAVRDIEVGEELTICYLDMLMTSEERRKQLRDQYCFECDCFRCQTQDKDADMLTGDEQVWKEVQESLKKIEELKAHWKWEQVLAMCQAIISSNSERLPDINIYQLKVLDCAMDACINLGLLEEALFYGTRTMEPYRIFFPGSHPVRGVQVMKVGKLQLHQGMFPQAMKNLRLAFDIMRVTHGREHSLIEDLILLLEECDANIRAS
Experimental: as §1, §2, §3

[12] = target: PRMT8 (Homo sapiens, UniProt Q9NR22); assay: PMT filter-paper methylation assay, PRMT8
PRMT8, sequence (Q9NR22 whole entry): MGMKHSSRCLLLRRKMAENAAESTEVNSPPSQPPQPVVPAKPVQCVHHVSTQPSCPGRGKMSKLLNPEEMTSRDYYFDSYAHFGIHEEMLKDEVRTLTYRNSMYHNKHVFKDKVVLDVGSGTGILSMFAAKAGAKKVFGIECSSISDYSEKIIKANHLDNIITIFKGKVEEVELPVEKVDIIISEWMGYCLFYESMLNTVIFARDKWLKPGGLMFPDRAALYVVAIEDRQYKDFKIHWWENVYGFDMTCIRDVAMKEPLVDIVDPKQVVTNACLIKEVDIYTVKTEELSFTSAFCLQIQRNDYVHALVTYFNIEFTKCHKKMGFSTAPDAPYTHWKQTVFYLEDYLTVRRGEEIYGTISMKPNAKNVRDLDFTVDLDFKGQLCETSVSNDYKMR
Experimental: as §1, §2, §3

[13] = target: MLL1 (Homo sapiens, UniProt Q03164); assay: PMT filter-paper methylation assay, MLL1
Experimental: as §1, §2, §3

- IC50 [1]: > 50 µM
- IC50 [2]: > 50 µM
- IC50 [3]: > 50 µM
- IC50 [4]: > 50 µM
- IC50 [5]: 45 µM
- IC50 [6]: > 50 µM
- IC50 [7]: > 50 µM
- IC50 [8]: > 50 µM
- IC50 ([9]; CARM1 (19-608)^a 300 nM final enzyme, read-out: IC50 CARM1^a): 300 nM
- IC50 ([9]; CARM1 (19-608)^b 25 nM final enzyme, read-out: IC50 CARM1^b): 50 nM
- IC50 [10]: > 50 µM
- IC50 [11]: > 50 µM
- IC50 [12]: > 50 µM
- IC50 [13]: 4.5 µM
SMILES: CC(C)(C)c1ccc(NC(=O)NCCC[C@H](CNCc2ccccc2)C[C@H]2O[C@@H](n3cnc4c(N)ncnc43)C(O)C2O)cc1 (some centres unmarked) [Example 104]

Reference: patent US20180305391A1, “COFACTOR ANALOGS AS […] INHIBITORS FOR TREATING CANCER” (MEMORIAL SLOAN-KETTERING CANCER CENTER, priority 2015, published 2018)
